In patent publication US20060069132A1, “Azolecarboxamide herbicides” (priority 2004, published 2006):

Assays:
itchgrass = experiment: Test E pre-/postemergence herbicide test; assay type: in vivo, Rottboellia cochinchinensis
Summary of the method: (§1)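 Each species was compared with untreated controls 12 to 14 days after greenhouse application and assigned a visual score from 0 (no effect) to 100 (complete control). Applications were preemergence to seeded soil or postemergence to 1- to 4-leaf plants, using a solvent-plus-surfactant formulation.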

kochia = experiment: Test E pre-/postemergence herbicide test; assay type: in vivo, Kochia scoparia
Summary of the method: as §1

goosegrass = experiment: Test E pre-/postemergence herbicide test; assay type: in vivo, Eleusine indica
Summary of the method: as §1

Canada horseweed = experiment: Test E pre-/postemergence herbicide test; assay type: in vivo, Erigeron Canadensis
Summary of the method: as §1

Russian thistle = experiment: Test E pre-/postemergence herbicide test; assay type: in vivo, Salsola kali
Excerpt: (§2) Seeds of plant species selected from bipinnate beggarticks (Bidens bipinnata L.), hairy beggarticks (Bidens radiata Thuill.), bermudagrass (Cynodon dactylon (L.) Pers.), Surinam grass (Urochloa decumbens (Staph) R. D. Webster, previously named Brachiaria decumbens Stapf), large crabgrass (Digitaria sanguinalis (L.) Scop.), green foxtail (Setaria viridis (L.) P. Beauv.), goosegrass (Eleusine indica (L.) Gaertn.), johnsongrass (Sorghum halepense (L.) Pers.), kochia (Kochia scoparia (L.) Schrad.), pitted morningglory (Ipomoea lacunosa L.), purple nutsedge (Cyperus rotundus L.), common ragweed (Ambrosia elatior L.), mustard (Brassica nigra (L.) W. D. J. Koch), guineagrass (Panicum maximum Jacq.), dallisgrass (Paspalum dilatatum Poir.), barnyardgrass (Echinochloa crus-galli (L). P. Beauv.), southern sandbur (Cenchrus echinatus L.), common sowthistle (Sonchus oleraceous L.), prickly sida (Sida spinosa L.), Italian ryegrass (Lolium multiflorum Lam.), common purslane (Portulaca oleracea L.), broadleaf signalgrass (Brachiaria platyphylla (Griseb.) Nash), common groundsel (Senecio vulgaris L.), common chickweed (Stellaria media (L.) Vill/Cyr.), tropical spiderwort (Commelina benghalensis L.), annual bluegrass (Poa annua L.), downy bromegrass (Bromus tectorum L.), itchgrass (Rottboellia cochinchinensis (L.) L.f.), quackgrass (Elytrigia repens (L.) Nevski), Canada horseweed (Erigeron Canadensis L.), field bindweed (Convolvulus arvensis L.), spotted spurge (Euphorbia maculata L.), common mallow (Malva sylvestris (=s silvestris) L.), and Russian thistle (Salsola kali L. ssp. Ruthenica (Iljin) Soo) were planted and treated preemergence with test chemicals formulated in a non-phytotoxic solvent mixture which included a surfactant.
(§3) At the same time, plants selected from these weed species were treated with postemergence applications of some of the test chemicals formulated in the same manner. Plants ranged in height from 2 to 18 cm (1- to 4-leaf stage) for postemergence treatments. Treated plants and controls were maintained in a greenhouse for 12 to 14 days, after which time all species were compared to controls and visually evaluated. Plant response ratings, summarized in Table E, are based on a scale of 0 to 100 where 0 is no effect and 100 is complete control. A dash (-) response means no test result.

purple nutsedge = experiment: Test E pre-/postemergence herbicide test; assay type: in vivo, Cyperus rotundus
Summary of the method: as §1

southern sandbur = experiment: Test E pre-/postemergence herbicide test; assay type: in vivo, Cenchrus echinatus
Summary of the method: as §1

guineagrass = experiment: Test E pre-/postemergence herbicide test; assay type: in vivo, Panicum maximum
Summary of the method: as §1

downy bromegrass = experiment: Test C postemergence herbicide test; assay type: in vivo, Bromus tectorum
Summary of the method: (§4)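 Injury scored visually against controls on a 0 (no effect) to 100 (complete control) scale, 12 to 14 days after treatment in greenhouse. Flooded paddy plants treated at 2-leaf stage; postemergence plants at 1- to 4-leaf stage, 2 to 18 cm tall.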

canarygrass = experiment: Test C postemergence herbicide test; assay type: in vivo, Phalaris minor
Summary of the method: as §4

Italian ryegrass = experiment: Test C postemergence herbicide test; assay type: in vivo, Lolium multiflorum
Summary of the method: as §4

winter barley = experiment: Test C postemergence herbicide test; assay type: in vivo, Hordeum vulgare
Summary of the method: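 Visual rating, 0 (no effect) to 100 (complete control), vs. controls at 12–14 d in greenhouse. Postemergence: 1–4-leaf plants, 2–18 cm. Paddy: flooded, barnyardgrass at 2-leaf stage.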

blackgrass = experiment: Test C postemergence herbicide test; assay type: in vivo, Alopecurus myosuroides
Summary of the method: as §4

bipinnate beggarticks = experiment: Test E pre-/postemergence herbicide test; assay type: in vivo, Bidens bipinnata; details: Preemergence
Excerpt: as §2, §3

[1] = Postemergence, 500 g ai/ha, scale 0 to 100
[2] = Postemergence, 250 g ai/ha, scale 0 to 100
[3] = Preemergence, 62 g ai/ha, scale 0 to 100
[4] = Preemergence, 125 g ai/ha, scale 0 to 100
[5] = Preemergence, 250 g ai/ha, scale 0 (no effect) to 100 (complete control)
[6] = Preemergence, 500 g ai/ha, scale 0 (no effect) to 100 (complete control)
[7] = postemergence, 125 g ai/ha, scale 0 to 100
[8] = postemergence, 62 g ai/ha, scale 0 to 100
[9] = Postemergence, 250 g ai/ha, scale 0 to 100, 0 no effect, 100 complete control
[10] = postemergence, 31 g ai/ha, scale 0 to 100
[11] = 250 g ai/ha, scale 0 (no effect) to 100 (complete control)

CCn1nc(C(C)(C)C)cc1C(=O)Nc1cc(C(=O)N(C)C)ccn1 [Compound 156, 2-[[[3-(1,1-dimethylethyl)-1-ethyl-1H-pyrazol-5-yl]carbonyl]amino]-N,N-dimethyl-4-pyridinecarboxamide]
90: Plant response rating, Nutsedge, Purple (purple nutsedge; [2]) | Plant response rating, Guineagrass (guineagrass; [3]) | Plant response rating, Guineagrass (guineagrass; [7])
75: Plant response rating, Nutsedge, Purple (purple nutsedge; [7]) | Plant response rating, Sandbur (southern sandbur; [5]) | Plant response rating, Sandbur (southern sandbur; [7])
60: Plant response rating, Sandbur (southern sandbur; [4]) | Plant response rating, Guineagrass (guineagrass; [8])
80: Plant response rating, Itchgrass (itchgrass; [8]) | Plant response rating, Thistle (Russian thistle; [2]) | Plant response rating, Thistle (Russian thistle; [3]) | Plant response rating, Sandbur (southern sandbur; [2]) | Plant response rating, Sandbur (southern sandbur; [6])
100: Plant response rating, Itchgrass (itchgrass; [3]) | Plant response rating, Itchgrass (itchgrass; [4]) | Plant response rating, Itchgrass (itchgrass; [5]) | Plant response rating, Itchgrass (itchgrass; [6]) | Plant response rating, Kochia (kochia; [1]) | Plant response rating, Kochia (kochia; [2]) | Plant response rating, Kochia (kochia; [3]) | Plant response rating, Kochia (kochia; [4]) | Plant response rating, Kochia (kochia; [5]) | Plant response rating, Kochia (kochia; [6]) | Plant response rating, Kochia (kochia; [7]) | Plant response rating, Goosegrass (goosegrass; [5]) | Plant response rating, Goosegrass (goosegrass; [6]) | Plant response rating, Horseweed (Canada horseweed; [1]) | Plant response rating, Horseweed (Canada horseweed; [2]) | Plant response rating, Horseweed (Canada horseweed; [4]) | Plant response rating, Horseweed (Canada horseweed; [5]) | Plant response rating, Horseweed (Canada horseweed; [6]) | Plant response rating, Thistle (Russian thistle; [4]) | Plant response rating, Thistle (Russian thistle; [6]) | Plant response rating, Guineagrass (guineagrass; [4]) | Plant response rating, Guineagrass (guineagrass; [5]) | Plant response rating, Guineagrass (guineagrass; [6])
98: Plant response rating, Itchgrass (itchgrass; [1]) | Plant response rating, Goosegrass (goosegrass; [1]) | Plant response rating, Goosegrass (goosegrass; [2]) | Plant response rating, Goosegrass (goosegrass; [7]) | Plant response rating, Sandbur (southern sandbur; [1]) | Plant response rating, Guineagrass (guineagrass; [1])
95: Plant response rating, Itchgrass (itchgrass; [2]) | Plant response rating, Itchgrass (itchgrass; [7]) | Plant response rating, Goosegrass (goosegrass; [3]) | Plant response rating, Goosegrass (goosegrass; [4]) | Plant response rating, Goosegrass (goosegrass; [8]) | Plant response rating, Horseweed (Canada horseweed; [3]) | Plant response rating, Nutsedge, Purple (purple nutsedge; [6]) | Plant response rating, Guineagrass (guineagrass; [2])
50: Plant response rating, Sandbur (southern sandbur; [3])
0: Plant response rating, Sandbur (southern sandbur; [8])

CCN1N=C(C(C)(C)C)CC1C(=O)Nc1cc(C(=O)N(C)C)ccc1F (stereo not shown) [Compound 268, N-[5-[(dimethylamino)carbonyl]-2-fluorophenyl]-3-(1,1-dimethylethyl)-1-ethyl-4,5-dihydro-1H-pyrazole-5-carboxamide]
95: Plant response rating, Itchgrass (itchgrass; [6]) | Plant response rating, Goosegrass (goosegrass; [5]) | Plant response rating, Goosegrass (goosegrass; [6])
10: Plant response rating, Bromegrass, Downy (downy bromegrass; [8]) | Plant response rating, Canarygrass (canarygrass; [10]) | Plant response rating, Canarygrass (canarygrass; [8]) | Plant response rating, Ryegrass, Italian (Italian ryegrass; [8]) | Plant response rating, Sandbur (southern sandbur; [3])
75: Plant response rating, Itchgrass (itchgrass; [5])
30: Plant response rating, Bromegrass, Downy (downy bromegrass; [7]) | Plant response rating, Canarygrass (canarygrass; [7]) | Plant response rating, Ryegrass, Italian (Italian ryegrass; [7]) | Plant response rating, Barley, Winter (winter barley; [9]) | Plant response rating, Blackgrass (blackgrass; [8])
15: Plant response rating, Barley, Winter (winter barley; Postemergence, 125 g ai/ha, scale 0 to 100, 0 no effect, 100 complete control)
60: Plant response rating, Itchgrass (itchgrass; [4]) | Plant response rating, Thistle (Russian thistle; [4]) | Plant response rating, Blackgrass (blackgrass; [9])
70: Plant response rating, Goosegrass (goosegrass; [3]) | Plant response rating, Nutsedge, Purple (purple nutsedge; [4]) | Plant response rating, Sandbur (southern sandbur; [4]) | Plant response rating, Guineagrass (guineagrass; [3])
0: Plant response rating, Bromegrass, Downy (downy bromegrass; [10]) | Plant response rating, Barley, Winter (winter barley; [10]) | Plant response rating, Barley, Winter (winter barley; postemergence, 62 g ai/ha, scale 0 to 100 (0 no effect, 100 complete control)) | Plant response rating, Blackgrass (blackgrass; [10])
85: Plant response rating, Nutsedge, Purple (purple nutsedge; [5]) | Plant response rating, Nutsedge, Purple (purple nutsedge; [6]) | Plant response rating, Guineagrass (guineagrass; [4])
100: Plant response rating, Thistle (Russian thistle; [6]) | Plant response rating, Sandbur (southern sandbur; [5]) | Plant response rating, Sandbur (southern sandbur; [6]) | Plant response rating, Guineagrass (guineagrass; [5]) | Plant response rating, Guineagrass (guineagrass; [6])
50: Plant response rating, Itchgrass (itchgrass; [3]) | Plant response rating, Canarygrass (canarygrass; [9]) | Plant response rating, Nutsedge, Purple (purple nutsedge; [3])
40: Plant response rating, Bromegrass, Downy (downy bromegrass; [9]) | Plant response rating, Ryegrass, Italian (Italian ryegrass; [9])
80: Plant response rating, Goosegrass (goosegrass; [4])
45: Plant response rating, Blackgrass (blackgrass; [7])

CCc1nn(C(C)C)nc1C(=O)Nc1cccc(C(=O)N2CCCCC2)c1 [Compound 385]
10: Plant response rating, Sandbur (southern sandbur; [4])
30: Plant response rating, Beggarticks, Bip. (bipinnate beggarticks; 125 g ai/ha, scale 0 to 100) | Plant response rating, Beggarticks, Bip. (bipinnate beggarticks; [11])
60: Plant response rating, Guineagrass (guineagrass; [4])
100: Plant response rating, Guineagrass (guineagrass; [5])
20: Plant response rating, Itchgrass (itchgrass; [3]) | Plant response rating, Itchgrass (itchgrass; [4]) | Plant response rating, Itchgrass (itchgrass; [5]) | Plant response rating, Goosegrass (goosegrass; [3]) | Plant response rating, Goosegrass (goosegrass; [4])
50: Plant response rating, Goosegrass (goosegrass; [5]) | Plant response rating, Thistle (Russian thistle; [4])
0: Plant response rating, Beggarticks, Bip. (bipinnate beggarticks; 62 g ai/ha, scale 0 to 100) | Plant response rating, Horseweed (Canada horseweed; [3]) | Plant response rating, Horseweed (Canada horseweed; [5]) | Plant response rating, Sandbur (southern sandbur; [3])
40: Plant response rating, Sandbur (southern sandbur; [5])

CCc1nn(C(C)C)nc1C(=O)Nc1cccc(C(=O)N(C)CC)c1 [Compound 386]
40: Plant response rating, Beggarticks, Bip. (bipinnate beggarticks; [11]) | Plant response rating, Sandbur (southern sandbur; [4]) | Plant response rating, Sandbur (southern sandbur; [5])
95: Plant response rating, Goosegrass (goosegrass; [5]) | Plant response rating, Horseweed (Canada horseweed; [5])
75: Plant response rating, Horseweed (Canada horseweed; [4])
100: Plant response rating, Guineagrass (guineagrass; [5])
70: Plant response rating, Itchgrass (itchgrass; [4]) | Plant response rating, Itchgrass (itchgrass; [5])
80: Plant response rating, Goosegrass (goosegrass; [4]) | Plant response rating, Guineagrass (guineagrass; [4])
